Consider three compounds from patent publication US20230046904A1, “COMBINATION OF SMALL MOLECULE INHIBITOR OF THE PD-1/PD-L1 INTERACTION AND ANTI-PD-1 ANTIBODY FOR TREATING CANCER” (GUANGZHOU MAXINOVEL PHARMACEUTICALS CO., LTD., priority 2019, published 2023).

Some results are limits rather than exact numbers.

Data set [1] deals with PD-L1 suppressed human T cells. Put plainly: Activation of T-Cell Suppressed by PD-L1 (co-culture with PD-L1 transfected Hep3B cells, IFN-γ readout). Format: cell-based. Particulars: dose-dependent; Keytruda as positive control. The source says: To measure the cellular activity of the compound, a protocol of Activation of T-Cell Suppressed by PD-L1 is used. In this protocol, human Hep3B cells are stably transfected with human PD-L1. The human T cells containing PD-1 are inactivated by co-culturing with these PD-L1 transfected cells. Then anti-PD-1 antibody Keytruda® (pembrolizumab) is selected as the reference to profile the compound for its activation of PD-L1 suppressed human T-cells. […] Keytruda is used as a positive control.

For data set [2], the system named is B16F10 tumor cells (melanoma). Put plainly: Anti-tumor efficacy in the B16F10 model in C57BL/6 mice. It counts as in vivo. The settings on record: PO, BID. The method, then:
Materials required for the experiment: Antibody: mouse PD-1 antibody, Product specifications: 7.09 mg/mL (50 mg/mL), Lot No.: 695318A1 purchased from BioXcell, storage at 4° C. Experimental animals 60 C57BL/6 mice, female, 6-8 weeks old, 17-21 g, purchased from Shanghai Lingchang Biotechnology Co. Ltd. Formulation materials: castor oil (Cremophor RH40), CAS No.: 61788-85-0, Lot No.: 29761847G0, purchased from Shanghai Xietai Chemical Co. Ltd.; β-cyclodextrin (SBE-β-CD), CAS No.: 128446-35-5, Lot No.: 20180110, purchased from Shanghai Shaoyuan Chemical Co. Ltd.; DMEM culture medium, Art. No.: 11995-065, Lot No.: 2025378, purchased from Gibco Co. Ltd.; PBS, Art. […]
Cell preparation and implantation: The B16-F10 tumor cells (ATCC CRL-6475™) are maintained in vitro as a monolayer culture in DMEM medium supplemented with 10% heat inactivated fetal bovine serum at 37° C. in an atmosphere of 5% CO2 in air. […] The cells growing to a confluency around 70%-80% are harvested and counted for tumor inoculation. […]
Procedure: The mice in the vehicle group are weighed and recorded in the electronic balance according to their numbers. […]
The mice in the antibody (10 mg/kg) group are weighed and recorded in the electronic balance according to their numbers. […]
The mice in the compound (30 mg/kg) group are weighed and recorded in the electronic balance according to their numbers. […]

Data set [3] deals with 4T1 tumor cells. Kind of data set: Anti-tumor efficacy of Compound 1 and Opdivo in the 4T1 humanized mouse model. Format: in vivo. Particulars: for TGI at day 13: p<0.0001. Here is the method:
(§1) 4T1 tumor cells (ATCC, CRL-2539™) are maintained in vitro as a monolayer culture in RPMI 1640 medium supplemented with 10% heat inactivated fetal bovine serum at 37° C. in an atmosphere of 5% CO2 in air. The tumor cells are routinely subcultured three times weekly by trypsin-EDTA treatment. Each mouse is inoculated subcutaneously at the fourth mammary pad with 1×10^5 in 0.05 mL base medium for tumor development.
Compound 1 plus Opdivo (nivolumab): 40 BALB/c mice are inoculated subcutaneously at the fourth mammary pad with 4T1 cells for tumor development. On the six days of post inoculation, the mice are assigned into 4 groups using stratified randomization with 10 mice in each group based upon their tumor volume. The treatments are started from the day of randomization, and the groups receive the following treatments:
Group 1: Vehicle control; Group 2: Opdivio, 10 mg/kg, i.p., BIW; Group 3: Compound 1, 60 mg/kg, p.o., BID and Group 4: Compound 1, 60 mg/kg, p.o., BID+Opdivio, 10 mg/kg, i.p., BIW respectively.
(§2) The tumor sizes are measured three times per week during the treatment.
The tumor growth inhibition effect of the combination of Compound 1 and Opdivo is examined. The tumor inhibition rate is calculated as:
TGI (%)=(1−(the volume of the tumor on the day of administration−the volume of the tumor on the first day of administration (treatment group))/(the volume of the tumor on the day of administration−the volume of the tumor on the first day (vehicle group)))×100%.

Data set [4] deals with 4T1 tumor cells. Kind of data set: Anti-tumor efficacy of Compound 1 and Keytruda in the 4T1 humanized mouse model. Format: in vivo. The method, then:
as §1
Compound 1 plus Keytruda (pembrolizumab): 40 BALB/c mice are inoculated subcutaneously at the fourth mammary pad with 4T1 cells for tumor development. On the six days of post inoculation, the mice were assigned into 4 groups using stratified randomization with 10 mice in each group based upon their tumor volume. The treatments were started from the day of randomization, and the groups receive the following treatments:
Group 1: Vehicle control; Group 2: Keytruda, 10 mg/kg, i.p., BIW; Group 3: Compound 1, 60 mg/kg, p.o., BID, and Group 4: Compound 1, 60 mg/kg, p.o., BID+Keytruda, 10 mg/kg, i.p., BIW respectively.
as §2
The tumor growth inhibition effect of the combination of Compound 1 and Keytruda is examined. The tumor inhibition rate is calculated as:
TGI (%)=(1−(the volume of the tumor on the day of administration−the volume of the tumor on the first day of administration (treatment group))/(the volume of the tumor on the day of administration−the volume of the tumor on the first day (vehicle group))×100%.

As to `Cc1c(/C=C/c2cc(CN[C@@](C)(CO)C(=O)O)ccc2C(F)(F)F)cccc1-c1ccccc1` [Compound 1], the “activation of PD-L1 suppressed human T cells, indicated by increase of cytokine IFN-γ” value in data set [1] is reported as “effectively restores the activation of the PD-L1 suppressed human T cells”. Besides, the “growth of subcutaneous transplanted melanoma cell line in mice” value in data set [2] (C57BL/6 mice) is recorded as “significantly inhibits the growth”. The “tolerability in C57BL/6 mice” value in data set [2] (up to 120 mg/kg) is listed as “well tolerated in C57BL/6 mice without obvious adverse reactions”. Further, the “TGI at day 13” value in the data set on 4T1 tumor cells [3] (60 mg/kg, PO, BID) came out at 21.70%. Also, the tumour growth inhibition (TGI) at day 10 with 4T1 tumor cells [4] (60 mg/kg, PO, BID, p<0.0001) is listed as 22.36%.

nivolumab [Opdivo]: the “TGI at day 13” value with 4T1 tumor cells [3] (10 mg/kg, IP, BIW) amounted to 21.88%. For the same compound, in the data set on 4T1 tumor cells [3] (after the 5th dose of Opdivo at day 14, 10 mg/kg i.p. BIW, mice), the “time after dosing within which mice are found dead” value is at most 1 h.

For the compound pembrolizumab [Keytruda], the “TGI at day 10” value in the data set on 4T1 tumor cells [4] (10 mg/kg, IP, BIW, p>0.5) is listed as 9.12%. Moreover, the “time after dosing within which mice are found dead” value in the data set on 4T1 tumor cells [4] (after the 4th dose of Keytruda at day 10, 10 mg/kg i.p. BIW, mice) was at most 1 h.
